# According to patent publication US6046018A, “Highly sensitive method for assaying chiro-inositol and compositions for the assay” (priority 1997, dated 2000):
# Several values for one entry are separate records, joined by “and”; a condition that tells them apart may be missing. Identical values can stand only once.
# Tests used:
# [1] = system: crude enzyme which catalyses chiroinositol, A. r. 1215 origin; experiment: Substrate specificity (Table 3); assay type: biochemical, Agrobacterium rhizogenes 1215; details: coenzyme replaced by thio-NADP
# From the text: (§1) In A. r. 1215 origin, the same assay method used in Bacillus sp. No. 3 is applied by replacing coenzyme to thio-NADP. In S. r. 301 origin, the reaction solution used for enzyme assay is used by replacing D-chiroinositol for various concentrations of substrates with adding constant concentration of enzyme solution to assay relative activities.
# [2] = system: dehydrogenase which catalyses chiroinositol (Bacillus sp. No. 3 origin); experiment: Substrate specificity (Table 1); assay type: biochemical; details: equal concentration of substrates; glycine-NaOH pH 9.8, thio-NAD/NADH cycling
# Protocol: Substrate specificity is assayed by using following reaction solution at the equal concentration of substrates.
# 200 mM glycine-NaOH buffer (pH 9.8)
# 0.03 mM NADH (Oriental Yeast Corp., Japan)
# 100 U/ml dehydrogenase which catalyses chiroinosiol
# 2 Mm thio-NAD (Oriental Yeast Corp., Japan)
# D-chiroinositol, galactose, fructose, mannitol, mannose; Japan, Wako Pure Chemicals Inc., myo-, epi-, scyllo-inositol U.S.A. SIGMA Corp.
# [3] = system: crude enzyme which catalyses chiroinositol, A. r. 1215 origin; experiment: Km value for D-chiroinositol; assay type: biochemical, Agrobacterium rhizogenes 1215
# Protocol: (§2) Km value for D-chiroinositol is shown. Measurement is performed by changing substrate concentration in the above assay method.
# [4] = system: crude enzyme which catalyses chiroinositol, S. r. 301 origin; experiment: Km value for D-chiroinositol; assay type: biochemical, Streptomyces roseogriseus 301
# Protocol: as §2
# [5] = system: crude enzyme which catalyses chiroinositol, S. r. 301 origin; experiment: Substrate specificity (Table 3); assay type: biochemical, Streptomyces roseogriseus 301; parameters: concentration or dose not given beside the values; details: enzyme assay reaction solution, D-chiroinositol replaced by substrates
# From the text: as §1
# [6] = system: dehydrogenase which catalyses chiroinositol (Bacillus sp. No. 3 origin); experiment: Km value; assay type: biochemical
# Protocol: 100 mM glycine-NaOH buffer (pH 11.0)
# 1 mM NAD (Oriental Yeast Corp., Japan)
# 10 mM D-chiroinosiol (Wako Pure Chemicals Inc., Japan)
# The above reaction solution 1 ml in quartz cell is set in spectrophotometer which is (controlled at 37° C. After over 5 minutes incubation, aliquot diluted enzyme solution 20 μl is added and stirred. Absorption changes per minute at A340 are measured to obtain initial reaction rate and to calculate relative activity.
# Km values are measured at various concentrations using 10 mM
# D-chiroinositol and mM NAD.
# Km for thio-NAD is measured by replacing NAD to thio-NAD.
# [7] = system: crude enzyme which catalyses chiroinositol, A. r. 1215 origin; experiment: Relative activities using various coenzymes (Table 2); assay type: biochemical, Agrobacterium rhizogenes 1215; details: activity using NAD is set as 100%
# From the text: (§3) The same as in the enzyme originated from Bacillus sp. No. 3.
# (§4) The same as in the enzyme originated from Bacillus sp. No. 3. Relative activities using various coenzymes are shown in Table 2 (activity using NAD is set as 100%).
# [8] = system: crude enzyme which catalyses chiroinositol, S. r. 301 origin; experiment: as above; assay type: biochemical, Streptomyces roseogriseus 301; details: activity using NAD is set as 100%
# From the text: as §3, §4
# [9] = system: dehydrogenase which catalyses chiroinositol (Bacillus sp. No. 3 origin); experiment: Initial rate of enzyme reaction with various coenzymes; assay type: biochemical; details: 10 mM D-chiroinositol, 1 mM coenzyme; for Initial rate of enzyme reaction: 37° C., at optimum pH; for Optimum pH for the coenzyme: 100 mM Gly-NaOH buffer
# Protocol: 100 mM Gly-NaOH buffer approx. pH 10 (at optimum pH)
# 10 mM D-chiroinositol (Wako Pure Chemicals Inc., Japan)
# 1 mM Coenzyme (NAD(P), thio-NAD(P); Oriental Yeast
# Optimum pH are pH 11.0 for NAD, deamino NAD and thio-NAD, pH 10.5 for acetyl NAD, and pH 10.0 for aldehyde NAD and NADP.
# The above reaction solution 1 ml in quartz cell is set in spectrophotometer which is controlled at 37° C. After over 5 minutes incubation, enzyme solution 140 U/ml (NAD and deamino NAD; 14 U/ml) 20 μl is added and stirred. Absorption changes per minute in specific wavelength for each reduced coenzyme is measured to obtain initial reaction rate. (For NAD and deamino NAD, measured value is increased number by ten for adjusting the amount of enzyme.)
# [10] = system: dehydrogenase which catalyses chiroinositol (Bacillus sp. No. 3 origin); experiment: as above; assay type: biochemical; details: thio-NAD forward reaction, NADH reverse reaction
# [11] = NAD and deamino NAD values increased by ten for enzyme amount
Compound,"Relative activity, A.r.1215 origin [1] [%]",Relative activity [2] [%],"Relative activity, S.r.301 origin [5] [%]","Relative activity, A.r.1215 origin [7] [%]","Relative activity, S.r.301 origin [8] [%]",Optimum pH for the coenzyme [9] [pH],also measured
O[C@H]1[C@H](O)[C@H](O)[C@@H](O)[C@H](O)[C@H]1O [D-chiroinositol],100,100,100,,,,Km [3]: 30.6 ± 1 mM; Km [4]: 27.6 ± 1 mM; Km ([6]; NAD replaced by thio-NAD): 12.8 ± 0.5 mM; Km ([6]; coenzyme NAD): 5.2 ± 0.5 mM
"NC(=O)c1ccc[n+]([C@@H]2O[C@H](COP(=O)([O-])OP(=O)(O)OC[C@H]3O[C@@H](n4cnc5c(N)ncnc54)[C@H](O)[C@@H]3O)[C@@H](O)[C@H]2O)c1 [NAD, nicotinamide adenine dinucleotide]",,,,190,100,11.0,"Initial rate of enzyme reaction [9, 11]: 13 Abs/min.; Km ([6]; coenzyme NAD): 0.5 ± 0.1 mM"
NC(=O)C1=CN([C@@H]2O[C@H](COP(=O)(O)OP(=O)(O)OC[C@H]3O[C@@H](n4cnc5c(N)ncnc54)[C@H](O)[C@@H]3O)[C@@H](O)[C@H]2O)C=CC1 [NADH],,,,,,,Optimum pH of reaction in the cycling reaction [10]: ~10.0 pH
NC(=O)c1ccc[n+]([C@@H]2O[C@H](COP(=O)([O-])OP(=O)(O)OC[C@H]3O[C@@H](n4cnc5c(N)ncnc54)[C@H](OP(=O)(O)O)[C@@H]3O)[C@@H](O)[C@H]2O)c1 [NADP],,,,1855,0,10.0,Initial rate of enzyme reaction [9]: 80 mAbs/min.
"CC(=O)c1ccc[n+]([C@@H]2O[C@H](COP(=O)([O-])OP(=O)(O)OC[C@H]3O[C@@H](n4cnc5c(N)ncnc54)[C@H](O)[C@@H]3O)[C@@H](O)[C@H]2O)c1 [acetyl NAD, acetylpyridine adenine dinucleotide]",,,,26,195,10.5,Initial rate of enzyme reaction [9]: 260 mAbs/min.
"Nc1ncnc2c1ncn2[C@@H]1O[C@H](COP(=O)(O)OP(=O)([O-])OC[C@H]2O[C@@H]([n+]3cccc(C=O)c3)[C@H](O)[C@@H]2O)[C@@H](O)[C@H]1O [aldehyde NAD, pyridine aldehyde adenine dinucleotide]",,,,15,20,10.0,Initial rate of enzyme reaction [9]: 140 mAbs/min.
"NC(=O)c1ccc[n+]([C@@H]2O[C@H](COP(=O)([O-])OP(=O)(O)OC[C@H]3O[C@@H](n4cnc5c(=O)[nH]cnc54)[C@H](O)[C@@H]3O)[C@@H](O)[C@H]2O)c1 [deamino NAD, nicotinamide hypoxanthine dinucleotide]",,,,44,110,11.0,"Initial rate of enzyme reaction [9, 11]: 12 Abs/min."
O[C@H]1[C@@H](O)[C@@H](O)[C@@H](O)[C@@H](O)[C@@H]1O [epi-inositol],0,0,4,,,,
O=C(CO)[C@@H](O)[C@H](O)[C@H](O)CO [fructose],0,0,0,,,,
OC[C@@H](O)[C@@H](O)[C@H](O)[C@H](O)CO [mannitol],0,0,0,,,,
O[C@H]1[C@H](O)[C@@H](O)[C@H](O)[C@@H](O)[C@H]1O [myoinositol],33,9,0,,,,
O[C@H]1[C@H](O)[C@@H](O)[C@H](O)[C@@H](O)[C@@H]1O [scylloinositol],0,0,0,,,,
"NC(=S)c1ccc[n+]([C@@H]2O[C@H](COP(=O)([O-])OP(=O)(O)OC[C@H]3O[C@@H](n4cnc5c(N)ncnc54)[C@H](O)[C@@H]3O)[C@@H](O)[C@H]2O)c1 [thio-NAD, thio-nicotinamide adenine dinucleotide]",,,,0,6,11.0,"Optimum pH of reaction in the cycling reaction [10]: ~10.5 pH; Initial rate of enzyme reaction [9, 11]: 2.5 Abs/min.; Km ([6]; NAD replaced by thio-NAD): 0.9 mM and 0.87 mM"
NC(=S)c1ccc[n+]([C@@H]2O[C@H](COP(=O)([O-])OP(=O)(O)OC[C@H]3O[C@@H](n4cnc5c(N)ncnc54)[C@H](OP(=O)(O)O)[C@@H]3O)[C@@H](O)[C@H]2O)c1 [thio-NADP],,,,269,0,,
galactose,,0,,,,,
mannose,10,0,0,,,,
